Results on two molecules are retold here after patent US9427604B2, “Use of benzyloxy-ethylamine derivatives as a preservative, preservation method, and compositions” (L'OREAL, priority 2009, dated 2016).

Each structure is given as a SMILES string.

Holding throughout (assay type): cell-based
Conditions in all cases: 7 days at 22° C.

Assay [1] concerns Escherichia coli (Ec) ATCC 8739. Description: Challenge test (artificial contamination) in aqueous solution, E. coli. As for the experimental part: (§1) The antimicrobial efficacy of compounds of formula (I) was evaluated via the challenge test or artificial contamination method after having introduced said compounds into water. The method of the challenge test consists of an artificial contamination of the sample with microbial strains from collection (bacteria, yeasts and moulds) and of an evaluation of the number of revivable microorganisms seven days after inoculation. […] 5 pure cultures of microorganisms are used. [table] The strains of gram−bacteria (Escherichia coli and Pseudomonas aeruginosa), gram+bacterium (Enterococcus faecalis), yeast (Candida albicans), and mould (Aspergillus niger) are inoculated into subculturing medium, respectively the day before inoculation for the bacteria and the yeast, and 5 days before inoculation for the mould. On the day of inoculation: • a suspension in tryptone salt diluent is prepared, respectively, for the bacteria and the yeast, so as to obtain by spectrophotometer a suspension with an optical density of between 35% and 45% of transmitted light at 544 nm; • for the mould, the spores are collected by washing the agar with 6 to 7 ml of harvesting solution and the suspension is recovered in a sterile tube or flask. After having homogenized the microbial suspension, 0.2 ml of inoculum (the suspensions are used pure: between 1×10^8 and 3×10^8 CFU per ml) are placed in each pill bottle and the microbial suspension is completely homogenized in the 20 g of product (=aqueous solution containing the compounds of formula (I) at the concentrations indicated) using a spatula. The content of microorganisms present in the product corresponds after homogenization to a concentration of 10^6 microorganisms per gram of product, i.e. inoculation to 1% of an inoculum containing 10^8 microorganisms per ml. After 7 days of contact time between the microorganisms and the product at 22° C.±2° C. and in the dark, ten-fold dilutions are carried out and the number of revivable microorganisms remaining in the product is counted.

In assay [2] the test system is Aspergillus niger (An) ATCC 6275. Description: Challenge test (artificial contamination) in aqueous solution, A. niger. As for the experimental part: as §1
Assay [3] has as its system Candida albicans (Ca) ATCC 10231. As to the kind of experiment: Challenge test (artificial contamination) in aqueous solution, C. albicans. As for the experimental part:
as §1

In assay [4] the test system is Pseudomonas aeruginosa (Pa) ATCC 19429. Description: Challenge test (artificial contamination) in aqueous solution, P. aeruginosa. As for the experimental part: as §1
For assay [5], the system named is Enterococcus faecalis (Ef) ATCC 33186. Description: Challenge test (artificial contamination) in aqueous solution, E. faecalis. As for the experimental part:
as §1

The mark [6] stands for this setting: content 1% in water, final pH 6.6, inoculation level 10^6 microorganisms/g.
Setting [7] is: content 0.01% in water, final pH 7, inoculation level 10^6 microorganisms/g.
The mark [8] stands for this setting: content 0.05% in water, final pH 7, inoculation level 10^6 microorganisms/g.
[9] abbreviates: content 0.1% in water, final pH 7.2, inoculation level 10^6 microorganisms/g.
Setting [10] is: content 0.25% in water, final pH 6.9, inoculation level 10^6 microorganisms/g.
Setting [11] is: content 0.5% in water, final pH 7.4, inoculation level 10^6 microorganisms/g.
Setting [12] is: content 0.75% in water, final pH 7.4, inoculation level 10^6 microorganisms/g.
Setting [13] is: content 1% in water, final pH 7.5, inoculation level 10^6 microorganisms/g.

Consider `Cl.c1ccc(CNCCOCc2ccccc2)cc1` [Compound B], for which, in assay [1] (setting [6]), the “No. of CFU/gram of product at T7 days, E. coli” value (“No. of CFU/gram … E. coli” below) is <200 CFU/gram of product. Besides, in assay [2] (setting [6]), the “No. of CFU/gram of product at T7 days, A. niger” value (shortened to “No. of CFU/gram … A. niger”) was <200 CFU/gram of product. Also, the “No. of CFU/gram of product at T7 days, C. albicans” value (from here on “No. of CFU/gram … C. albicans”) in assay [3] (setting [6]) is given as <200 CFU/gram of product. The “No. of CFU/gram of product at T7 days, P. aeruginosa” value (“No. of CFU/gram … P. aeruginosa” below) in assay [4] (setting [6]) is recorded as <200 CFU/gram of product. Moreover, the “No. of CFU/gram of product at T7 days, E. faecalis” value (“No. of CFU/gram … E. faecalis” for short) in assay [5] (setting [6]) is <200 CFU/gram of product.

With `Cl.NCCOCc1ccccc1` [Compound A], the “No. of CFU/gram … E. coli” value is given as 7.4 × 10^6 CFU/gram of product in assay [1] (setting [7]); 6.2 × 10^6 CFU/gram of product in assay [1] (setting [8]); 1.9 × 10^6 CFU/gram of product in assay [1] (setting [9]); 2.8 × 10^3 CFU/gram of product in assay [1] (setting [10]); <200 CFU/gram of product in assay [1] (setting [11]); <200 CFU/gram of product in assay [1] (setting [12]). Further, in assay [1] (setting [13]), the “No. of CFU/gram … E. coli” value is <200 CFU/gram of product. Moreover, the “No. of CFU/gram … A. niger” value in assay [2] (setting [7]) was 1.4 × 10^6 CFU/gram of product; in assay [2] (setting [8]) it was 1.3 × 10^6 CFU/gram of product; in assay [2] (setting [9]), 1.0 × 10^6 CFU/gram of product; in assay [2] (setting [10]), 1.0 × 10^6 CFU/gram of product; in assay [2] (setting [11]), 6.2 × 10^5 CFU/gram of product; in assay [2] (setting [12]), 1.6 × 10^5 CFU/gram of product. The “No. of CFU/gram … A. niger” value in assay [2] (setting [13]) is 3.6 × 10^4 CFU/gram of product. The “No. of CFU/gram … C. albicans” value in assay [3] (setting [7]) is recorded as 3.2 × 10^6 CFU/gram of product; in assay [3] (setting [8]), 3.0 × 10^6 CFU/gram of product; in assay [3] (setting [9]), 2.8 × 10^6 CFU/gram of product; in assay [3] (setting [10]) it was 2.3 × 10^6 CFU/gram of product; in assay [3] (setting [11]), 1.3 × 10^6 CFU/gram of product; in assay [3] (setting [12]), 5.8 × 10^3 CFU/gram of product. Also, the “No. of CFU/gram … C. albicans” value in assay [3] (setting [13]) is <200 CFU/gram of product. Besides, the “No. of CFU/gram … P. aeruginosa” value in assay [4] (setting [7]) was 9.0 × 10^6 CFU/gram of product; in assay [4] (setting [8]), 1.9 × 10^6 CFU/gram of product; in assay [4] (setting [9]), 1.5 × 10^5 CFU/gram of product; in assay [4] (setting [10]), 3.0 × 10^3 CFU/gram of product; in assay [4] (setting [11]) it was <200 CFU/gram of product; in assay [4] (setting [12]), <200 CFU/gram of product. Besides, the “No. of CFU/gram … P. aeruginosa” value in assay [4] (setting [13]) is <200 CFU/gram of product. Also, the “No. of CFU/gram … E. faecalis” value in assay [5] (setting [7]) is on record as 4.1 × 10^5 CFU/gram of product; in assay [5] (setting [8]), 3.3 × 10^5 CFU/gram of product; in assay [5] (setting [9]), 6.9 × 10^4 CFU/gram of product; in assay [5] (setting [10]), 1.2 × 10^3 CFU/gram of product; in assay [5] (setting [11]) it was <200 CFU/gram of product; in assay [5] (setting [12]), <200 CFU/gram of product. In assay [5] (setting [13]), the “No. of CFU/gram … E. faecalis” value is given as <200 CFU/gram of product.
